The test system of data set [1] is endogenous Brugia thioredoxin reductase. The experiment in a line: Thioredoxin reductase activity of lysates of worms recovered from gerbils treated in vivo. How it is done: (§1) Thioredoxin reductase activity of worm lysates was assayed using female B. malayi treated in vitro with either 0.3 μM, 0.1 μM, or 0.03 μM auranofin or 1% DMSO. After 5 hours of treatment, worm motility was measured using the Worminator, and then worms (24 in each group) were pooled, washed three times in PBS, and lysed by douncing in a glass homogenizer in assay buffer (Abcam Thioredoxin Reductase Assay kit, ab83463) with 1 mM PMSF. The crude lysates were centrifuged at 10,000 rcf for 15 minutes at 4°C to pellet insoluble material. The total protein concentrations of soluble lysates were measured using the Bradford assay. The soluble lysates were incubated for 20 minutes in assay buffer or assay buffer with a proprietary thioredoxin reductase specific inhibitor before adding a specific substrate, DTNB (5, 5′-dithiobis (2-nitrobenzoic) acid), and measuring activity at 20 second intervals for 40 minutes using the SpectraMax Plus Microplate Reader (Molecular Devices, Sunnyvale, CA) at λ = 412 nm. Lysates were tested in duplicate. TrxR activity was calculated based on the linear amount of TNB produced per minute per mg of total protein and adjusted for background activity from enzymes other than TrxR in the lysates.
Thioredoxin reductase activity was also analyzed in worms that were treated with auranofin or vehicle in vivo. […]

Details of data set [2]: method as in PMID 6417628. Conditions: patients with rheumatoid arthritis treated for an average of 6 months; cited from earlier work.
The test system of data set [3] is adult male O. ochengi. Nature of the data set: Adult male Onchocerca ochengi motility scoring in vitro. The following applies: Day 5, motility. The format is cell-based.
The subject of data set [4] is adult B. pahangi. Nature of the data set: Adult Brugia pahangi worm motility assay (Worminator) in vitro. The data set is classed as cell-based. Conditions: for IC50: B. pahangi, Adult, Day 3, motility. As to the method: Adult female and male Brugia (B. malayi and B. pahangi) were shipped from TRS Labs Inc., Athens, GA and assayed using methods described by Marcellino et al. (2012). Individual females were placed in each well of a 24-well plate with media (RPMI-1640 with 25 mM HEPES, 2.0 g/L NaHCO3, 5% heat inactivated FBS, and 1X Antibiotic/Antimycotic solution). Excess media was removed from plates using a Biomek FxP, leaving 500 μL of media per well. Initial screening of a library of FDA-approved compounds, compiled by the Small Molecule Discovery Center at the University of California San Francisco, was conducted at 10 μM per compound, and 1% DMSO was used as a negative control. All drugs including auranofin (Enzo Life Sciences, Farmingdale, NY) were dissolved in DMSO (Sigma-Aldrich, St. Louis, MO) and 10 mM stock solutions were stored at -20°C. Four worms were used as replicates for each concentration and worm plates were kept in a 37°C, 5% CO2 incubator for four days.
To determine the effect of a compound on worm motility, individual worm movements were counted as the number of pixels displaced per second by each worm in each well using the Worminator. Each plate of worms was video recorded for approximately 60 seconds, and mean movement units (MMUs) were determined for individual worms. Percent inhibition of motility was calculated by dividing the MMUs of the treated worms by the control average MMUs, subtracting the value from 1.0, flooring the values to zero and multiplying by 100%. Videos were recorded for 4 days, including the first day of the assay (Day 0). IC50 determinations were conducted at 10 μM, 3 μM, 1 μM, 0.3 μM, 0.1 μM and 0.03 μM, with 1% DMSO used as a control. IC50 assays were repeated at the same concentrations and at six point, three-fold dilutions from 1 μM to 0.003 μM or 3 μM to […] to ensure that activity was consistent between assays. Prism 4.0 was used to calculate IC50 values using a non-linear regression curve fit. The means of all IC50s with R^2 values greater than or equal to 0.7 are reported.

The test system of data set [5] is endogenous Brugia thioredoxin reductase. Nature of the data set: Thioredoxin reductase activity of lysates of female B. malayi treated in vitro. The format is biochemical, Brugia malayi. Conditions: 5 hours in vitro, female worms, soluble lysate. As to the method: as §1
The subject of data set [6] is adult female B. pahangi. Nature of the data set: Transmission electron microscopy of treated adult female B. pahangi. The format is cell-based, Brugia pahangi. Conditions: auranofin 1 μM, 0.3 μM or 0.1 μM overnight, vs 1% DMSO. How it is done: Adult female B. pahangi worms were incubated with either 1 μM, 0.3 μM, or 0.1 μM auranofin, 10 μM flubendazole (as a positive control), or 1% DMSO overnight, then cut into 3 segments separating the anterior, middle and posterior sections. The middle sections were further cut into 1 mm sized pieces in fixative (2.5% glutaraldehyde and 2% paraformaldehyde in 0.1 M sodium cacodylate buffer, pH 7.3–7.4) and stored at 4°C. Middle sections were subsequently treated with 1% tannic acid for 1 hour, followed by three buffer washes before post fixation staining with 2% osmium tetroxide for 1 hour. The samples were washed three times in buffer before dehydration in an ethanol series. Worm sections were then infiltrated with propylene oxide, embedded in epon 812 resin and polymerized in a vacuum oven at 60°C overnight. Ultrathin sections were cut using an RMC MTX ultramicrotome with a Diatome diamond knife followed by post staining of the grids with saturated ethanolic uranyl acetate and Reynolds lead citrate. Samples were imaged on a FEI Tecnai 12 spirit TEM operated at 80 kV. A similar procedure was performed on adult female O. ochengi worm masses that were cultured for 7 days with 10 μM auranofin before fixation of cut pieces of the adult female mass. Untreated adult female masses cultured for 7 days and fixed by the same procedure served as the control.

In data set [7] the target is glutathione reductase. On the set-up: method as in PMID 9685351. The following applies: higher IC50; cited from earlier work.

Each structure is given as a SMILES string. “Also recorded” adds a separate entry of the source.

As a reminder, the IC50 is the midpoint of a concentration-inhibition curve. Low values mean greater potency, high ones weaker potency.

For `CC[PH](CC)(CC)[Au][S][C@@H]1O[C@H](COC(C)=O)[C@@H](OC(C)=O)[C@H](OC(C)=O)[C@H]1OC(C)=O` [auranofin, 2,3,4,6-tetra-O-acetyl-1-thio-beta-D-glucopyranosato-S (triethylphosphine) gold], the “Thioredoxin reductase activity, percent of vehicle control” value in data set [1] (worms collected 16 days after the last dose from treated gerbils) is 51%. Also, the “reduction of endogenous thioredoxin reductase activity vs vehicle” value in data set [1] (worms removed 16 days after the last dose from gerbils treated 28 days) was 49%. The side effects result in data set [2] was “few side effects, with the most common side effect being diarrhea”. Besides, the IC50 in data set [3] was 400 nM; in data set [4] (Female), 500 nM; in data set [4] (Male), 100 nM. In data set [4] (female B. pahangi, 3 μM, within 18 hours of incubation), this compound showed an inhibition of motility of 97%. In addition, the entries for the “Thioredoxin reductase activity, percent of DMSO control” value in data set [5] (0.03 μM), in data set [5] (0.1 μM) and in data set [5] (0.3 μM) were 69%, 33% and 15%, respectively. The “ultrastructure (TEM) of adult female B. pahangi” value in data set [6] is “considerable damage in the hypodermal region; also recorded: extensive damage to Wolbachia in the hypodermal area”. The “IC50 relative to TrxR isolated from human placenta” value in data set [7] is “about 1000 fold”.
